Measurements: US20100292200A1, “Methods for Modulating Apoptosis in Platelets” (The Walter and Eliza Hall Institute of Medical Research, priority 2006, published 2010)

Legend:
[1] = tested on: primary MEFs from wild type, Bcl-x^Plt20/Plt20 or Bcl-x^Plt16/Plt16 mice; experiment: Viability of primary MEFs (PI exclusion) after cell death induction; assay type: cell-based, mouse
From the text: FIG. 3 provides a representation of data showing that the Bcl-x^Plt20 and Bcl-x^Plt16 mutations destabilize the Bcl-xL protein (A) Location of the Plt20 and Plt16 mutations on Bcl-xL. The two mutations (in blue) are mapped on the 3-dimensional structure of mouse Bcl-xL (light gray) in complex with a Bim BH3 peptide (red) (1PQ1) (Liu et al. Immunity, 19:341-352, 2003). Y15 (Plt20) is partially solvent exposed, while I182 (Plt16) is completely buried, neither contributing to the BH3 binding groove of Bcl-xL. The structural depiction was prepared using PyMOL (DeLano, W. L. 2002 The PyMOL Molecular Graphics System; http://www.pymol.org). (B) The mutant proteins encoded by the Plt20 and Plt16 alleles of Bcl-x can still bind Bax and Bak. […] Data shown is representative of at least 2 cell lines of each genotype analyzed. […] The viability (determined by PI exclusion) of representative primary MEFs derived from wild type, Bcl-x^Plt20/Plt20 or Bcl-x^Plt16/Plt16 mice after exposure to 50 μg/mL cycloheximide for 0-30 h. […]
FIG. 8 is a graphical representation of data showing the sensitivity of cell lines derived from Bcl-x mutant mice to apoptosis. […] Viability was determined by PI uptake; data represent means±SD of representative cell lines. \-<1% viability. […]

mouse platelets = experiment: Ex vivo platelet assays, mouse platelets in culture (platelet counts, caspase immunoblotting); assay type: cell-based; settings: qVD.OPh 50 μM with ABT-737 1 μM
Experimental: (A) Expression of Bcl-2 family proteins in platelets. […] (C) ABT-737 triggers caspase activation in platelets. […] (F) Absence of Bak protects platelets against ABT-737.
Cell death was induced with ABT-737 (up to 5 μM, Abbott Laboratories (Oltersdorf et al., 2005 (supra)), etoposide (up to 100 μM, Pharmacia) or staurosporine (10 μM, Sigma); 50 μM qVD.OPh (Enzyme Systems) was also added in some experiments. Cell viability was determined by flow cytometry for cells that exclude propidium iodide or manual counting using a hemacytometer.
Other antibodies for immunoblotting were mouse monoclonal anti-Bcl-xL (2H12; BD), anti-Bcl-2 (clone 7; BD), anti-human Bcl-2 (Bcl-2-100), anti-actin (AC40; Sigma), anti-Bax (2D2 and 5B7; Sigma), anti-Mcl-1 (clone 22: BD); rat monoclonal anti-Mcl-1 (14C11; D Huang, unpublished), rabbit polyclonal anti-Bak (B5897: Sigma), anti-Mcl-1 (Rockland), anti-caspase-3 (585; gift of Y. Lazebnik), anti-cleaved p17 fragment of caspase-3 (AB3623; Chemicon), anti-gelsolin (gift of D Kwiatkowski) (Kothakota et al., Science, 278:294-298, 1997); hamster monoclonal anti-mouse Bcl-2 (3F11; BD). Secondary antibodies included HRP-conjugated anti-rat or anti-hamster IgG (SouthernBiotech), anti-mouse or anti-rabbit IgG (Chemicon), and anti-mouse IgG Fcγ chain specific antibody (Jackson ImmunoResearch). The proteins were detected using Enhanced ChemiLuminescence (ECL; GE Healthcare).
Platelets were counted manually in triplicate using a hemacytometer.

Mcl-1 null MEF cells = experiment: Assay of Mcl-1 null MEF cells (rescue from ABT-737-induced killing, CellTitre-Blue viability); assay type: cell-based, mouse; settings: positive control, 25 μM final; ABT-737 20 nM final
Experimental: In summary, cells are split on day one in order to have them at a confluency of 60-80% on day two. On day two, the cells are seeded out into assay plates at a density that will ensure they are not confluent by day four of the assay. The assay plates are incubated at room temperature for 20-60 minutes before being transferred to 37° C. so that edge effects are minimized. For the same reason, assay plates are never stacked on top of each other in the incubator. On day three the cells are treated first with either Q-VD or with WEHI library compound. The cells are incubated for a 2 hour period in the presence of the library compounds and are then treated with ABT-737. […] After four hours the level of resorufin is measured.
The protocol for day one was repeated up to the point where the cells were pelleted and the supernatant aspirated off. […] The cells were vortexed and then counted using a haemocytometer. The dilution necessary to achieve a density of 2×10^4 cells ml^−1 (1000 cells per well per 50 μl media) in the required volume was calculated and the dilution performed in 1% FCS FMA. […]
CellTitre-Blue™ was warmed to 37° C. and 10 μl was then added to each well of the assay plates using the Multidrop. The plates were returned to 37° C. for 4 hours before being loaded into the EnVision plate reader. […]

In the case of `C[C@@H]1C[C@@H]([C@H](O)CC2CC(=O)NC(=O)C2)C(=O)[C@@H](C)C1` [cycloheximide], the “viability of Bcl-x^Plt20 or Bcl-x^Plt16 MEFs after protein synthesis inhibition” value ([1]; 50 μg/mL cycloheximide for 0-30 h, PI exclusion) is reported as “susceptible”.
For `CC(C)[C@H](NC(=O)c1ccc2ccccc2n1)C(=O)N[C@@H](CC(=O)O)C(=O)COc1c(F)cccc1F` [qVD.OPh], the “effect of qVD.OPh on ABT-737-induced caspase-3 activation and gelsolin cleavage” value (mouse platelets) was “partially blocked”, the “effect of qVD.OPh on the cytotoxic effect of ABT-737 on mouse platelets in culture” value (mouse platelets; counted after 1 h) was “partially ameliorated” and the “rescue of Mcl-1^(-/-) cells from ABT-737-induced apoptosis” value (Mcl-1 null MEF cells) was “can be rescued”.
In the case of `CN[C@@H]1C[C@H]2O[C@@](C)([C@@H]1OC)n1c3ccccc3c3c4c(c5c6ccccc6n2c5c31)C(=O)NC4` [staurosporine], the “sensitivity of wild-type, Bcl-x^Plt20/Plt20 or Bcl-x^Plt16/Plt16 MEFs to staurosporine” value ([1]; staurosporine 10 μM, PI uptake) is reported as “equally sensitive”.
